These results are taken from patent US20150335596A1, “1-(2-FLUOROBIPHENYL-4-YL)-CYCLOPROPANECARBOXYLIC ACID DERIVATIVES FOR THE TREATMENT OF DOWN'S SYNDROME” (CHIESI FARMACEUTICI S.P.A., priority 2014, published 2015).

Assay type in all cases: in vivo, mouse
Experiment [1] relates to Ts65Dn mice. Description: Y-maze test, spatial learning and memory. On the procedure:
(§1) The study was performed on Ts65Dn male, using the administration of CHF 5074 in the diet (375 ppm, equivalent to approximately 60 mg/kg/day).
(§2) The treatment started at 2 to 3 months of age and it was chronically administered in the diet for 15 months, until 19 months of age.
(§3) Treatment groups were: • Wild-type mice receiving standard diet (N=20) • Wild-type mice receiving CHF 5074-medicated diet (375 ppm, approximately 60 mg/kg/day) (N=20) • Ts65Dn mice receiving standard diet (N=20) • Ts65Dn mice receiving CHF 5074-mediacted diet (375 ppm, approximately 60 mg/kg/day) (N=20)
(§4) Animals were provided by Jackson Laboratory, Bar Harbor, Me., USA) in small cohorts. Ts65Dn segmental male trisomic mice were used. Ts65Dn mice were compared with diploid controls from the same litters.
Spatial learning and memory were assessed with the Y-maze test according to Stewart S et al., J Alzheimer Dis 2011; 26: 105-126, which is incorporated herein by reference in its entirety.
Animals were tested in a single trial Y maze task, to measure arm entries (A) and alternation (B). The percentage of spontaneous alternations is defined as (total alternations/total arm entries-2)×100.

Experiment [2] deals with Ts65Dn mice. Description: CatWalk computerized gait analysis, locomotion. On the procedure:
as §1, §2, §3, §4
Locomotion deficits were assessed with the CatWalk technology (gait analysis) according to Faizi M et al., Neurobiol Dis 2011; 43: 397-413, which is incorporated herein by reference in its entirety.
The print area of front and hind paws is presented, as corrected according to the individual animal body weight. […] CHF 5074 treatment normalized this gait parameter.

Experiment [3] relates to Ionized calcium binding adaptor molecule 1 (Iba1). Description: Activated microglia, Iba1 immunoreactivity in hippocampus. The conditions noted are these: CA1/2 hippocampus, aged Ts65Dn mice, diet 375 ppm, vs Ts65Dn on standard diet. On the procedure:
as §1, §2, §3
(§5) Brain morphology was assessed by immunohistochemistry, immunofluorescence and quantitative morphometry and microdensitometry according to Imbimbo B P et al., J Alzheimer Dis 2010; 20:159-173; Sivilia S et al., BMC Neurosci 2013; 14: 44; and Guidi S et al., Brain 2014; 137: 380-401, all of which are incorporated herein by reference in their entireties. The following proteins were investigated:
Ionized calcium binding adaptor molecule 1 (Iba1), as microglia marker in hippocampus;

The subject of experiment [4] is Glial fibrillary acidic protein (GFAP). Description: Reactive astrocytes, GFAP immunoreactivity in hippocampus. The following applies: CA1/2 hippocampus, aged Ts65Dn mice, diet 375 ppm, vs Ts65Dn on standard diet. On the procedure:
as §1, §2, §3, §5
Glial fibrillary acidic protein (GFAP) as astrocyte marker in hippocampus;

In another experiment the test system is APP mRNA. Description: APP mRNA expression by real-time PCR in hippocampus and basal ganglia. The following applies: wild-type animals, medicated diet for 15 months. (Quantitative PCR measures a nucleic acid by following its amplification.)
Experiment [5] deals with Aβ40 and Aβ42. Description: Plasma Aβ40 and Aβ42 by ELISA. On the procedure:
as §1, §2, §3
(§6) Aβ40 and Aβ42 were measured by ELISA in plasma and brain extracts (IBL kit for mouse Aβ40/Aβ42);
FIGS. 6 A and B illustrates the plasma levels of Aβ40 and Aβ42 peptides in animals after 15 months of treatment (19 months of age). There was a substantial increase in Aβ40 and Aβ42 plasma levels in Ts65Dn mice compared to wild-type animals.
On the technique in general: ELISA stands for enzyme-linked immunosorbent assay.

Experiment [6] has as its system Aβ40 and Aβ42. Description: Brain (cerebral cortex) Aβ40 and Aβ42 by ELISA. The conditions noted are these: after 15 months of treatment (19 months of age). On the procedure: as §1, §2, §3, §6
FIGS. 7 A, B, C, and D illustrates the brain (cerebral cortex) levels of Aβ40 and Aβ42 in animals after 15 months of treatment (19 months of age). Results are expressed as pmol/gr proteins (panels A and B), and as fmol/g wet tissue (panels C and D). There was a substantial increase in Aβ40 and Aβ42 brain levels in Ts65Dn mice compared to wild-type animals.

The subject of experiment [7] is total APP/Aβ40/Aβ42 peptides. Description: Intraneuronal APP immunohistochemistry and microdensitometry in cerebral cortex. The conditions noted are these: Ts65Dn mice treated vs control transgenic animals.
Experimental: Intraneuronal APP was measured by immunohistochemistry and computerized microdensitometry (Chemicon clone 22C11) in cerebral cortex;
Experiment [8] deals with Amyloid precursor protein intracellular domain (AICD). Description: AICD immunoreactivity in CA1/2 hippocampal neurons. The conditions noted are these: CA1/2 hippocampal regions, Ts65Dn mice, p<0.0001.
Experimental: Amyloid precursor protein intracellular domain (AICD) (cleavage sites C83 and C99) in hippocampus.
Quantification was carried out by counting the percentage of neurons having AICD-positivity.
A further experiment concerns Synaptophysin. Description: Synaptophysin immunostaining in hippocampus. The conditions noted are these: CA1/2 hippocampus, after 15 months of treatment, between experimental groups. On the procedure:
as §1, §2, §3, §5
Synaptophysin. It is a pre-synaptic vesicle membrane protein known to mediate vesicle release in hippocampus;
(§7) FIG. 10 illustrates main markers of synaptic transmission in the CA1/2 regions of the hippocampus after 15 months of treatment (19 months of age). […] Panel B reports the variation of immunostaining for the glutamate transporter VGLUT1 with a substantial decrease in Ts65Dn mice compared to wild-type animals. […]

Experiment [9] relates to Vesicular GABA transporter (VGAT). Description: VGAT immunostaining in hippocampus. The conditions noted are these: CA1/2 hippocampus, Ts65Dn mice, after 15 months of treatment. On the procedure: as §1, §2, §3, §5
Vesicular GABA transporter (VGAT), as marker of GABAergic synapses in hippocampus;
as §7

[10] abbreviates: wild-type and Ts65Dn mice, after 15 months of treatment (19 months of age).

Experimental for APP mRNA: Molecular biology markers were measured in hippocampus and basal ganglia by real-time PCR, according to Massella A et al., BMC Neuroscience 2012; 13: 12; and D'Intino G et al., J Neuroendocrinol 2011; 23: 778-790, both of which are incorporated herein by reference in their entireties.

Regarding `O=C(O)C1(c2ccc(-c3ccc(Cl)c(Cl)c3)c(F)c2)CC1` [CHF 5074, 1-(3′,4′-dichloro-2-fluorobiphenyl-4-yl)cyclopropanecarboxylic acid], in the experiment with Ts65Dn mice [1] (CHF 5074 in diet 375 ppm (approx. 60 mg/kg/day), tested after 6, 9 and 15 months of treatment), the “spontaneous alternation in Y maze (spatial memory)” value is “progressively normalized”. The “spontaneous alternation in Y maze compared to wild-type mice” value in the experiment on Ts65Dn mice [1] (diet 375 ppm, after 15 months of treatment) is listed as “not significantly different”. In the experiment on Ts65Dn mice [1] (prolonged oral treatment), the “spatial memory deficit (study summary)” value is reported as “attenuated”. In addition, the “hind paw print area (gait parameter, corrected for body weight)” value with Ts65Dn mice [2] (diet 375 ppm, after 15 months of treatment (19 months of age)) is listed as “normalized”. Further, in the experiment on Ts65Dn mice [2] (prolonged oral treatment), the “locomotion deficit (study summary)” value is on record as “completely reversed”. Also, the “Iba1-immunoreactivity (activated microglia)” value in experiment [3] is reported as “substantial reduction”. In experiment [4], the “GFAP-immunoreactivity (reactive astrocytes)” value is “substantial reduction”. For the same compound, the “APP mRNA levels” value with APP mRNA is listed as “slightly but significantly increased”. Moreover, in the experiment on Aβ40 and Aβ42 [5] (setting [10]), the “plasma level of Aβ40” value is recorded as “further increased” and the “plasma level of Aβ42” value was “further increased”. For the same compound, in the experiment on Aβ40 and Aβ42 [5] (wild-type animals, after 15 months of treatment), the “significance of the increase in plasma Aβ42” value is listed as “significant”. Moreover, in the experiment on Aβ40 and Aβ42 [6], the “brain Aβ40 levels” value is recorded as “did not modify significantly” and the “brain Aβ42 levels” value is listed as “did not modify significantly”. Also, the “intracellular immunoreactivity of total APP/Aβ40/Aβ42 peptides in cortical neurons” value in experiment [7] was “significant decrease”. In experiment [8], the “increase in percentage of AICD-positive neurons” value is “significantly attenuated”. Besides, the synaptophysin levels entry with Synaptophysin is recorded as “no significant differences”. Further, the “increase of immunostaining for the GABA transporter VGAT” value in experiment [9] is recorded as “completely reversed”.
